Assay results as given in the kinase profiling compilation of Christmann-Franck et al. (2016).

Assays:
Experiment in all cases: radiometric filter-binding kinase assay, Kinase HotSpot
Settings in all cases: compound 0.5 µM; ATP 10 µM
CDK9 CCNK (human) = CDK9 CCNK (human) (UniProt O75909+P50750)
CSK (human) = CSK (human) (UniProt P41240)
[1] = target: JAK1 JH1 catalytic (human) (UniProt P23458)
NEK1 (human) = NEK1 (human) (UniProt Q96PY6)
RPS6KA5 KD2 (human) = RPS6KA5 KD2 (human) (UniProt O75582)
ACVRL1 (human) = ACVRL1 (human) (UniProt P37023)
CAMKK2 (human) = CAMKK2 (human) (UniProt Q96RR4)
CHUK (human) = CHUK (human) (UniProt O15111)
CLK3 (human) = CLK3 (human) (UniProt P49761)
CSNK1G3 (human) = CSNK1G3 (human) (UniProt Q9Y6M4)
CSNK2A2 (human) = CSNK2A2 (human) (UniProt P19784)
DCLK2 (human) = DCLK2 (human) (UniProt Q8N568)
DYRK1A (human) = DYRK1A (human) (UniProt Q13627)
DYRK1B (human) = DYRK1B (human) (UniProt Q9Y463)
DYRK4 (human) = DYRK4 (human) (UniProt Q9NR20)
EPHA1 (human) = EPHA1 (human) (UniProt P21709)
GSK3A (human) = GSK3A (human) (UniProt P49840)
HIPK4 (human) = HIPK4 (human) (UniProt Q8NE63)
KIT (human) = KIT (human) (UniProt P10721)
MAPK1 (human) = MAPK1 (human) (UniProt P28482)
MAPKAPK2 (human) = MAPKAPK2 (human) (UniProt P49137)
MELK (human) = MELK (human) (UniProt Q14680)
NEK2 (human) = NEK2 (human) (UniProt P51955)
PKN2 (human) = PKN2 (human) (UniProt Q16513)
PRKCB1 (human) = PRKCB1 (human) (UniProt P05771)
PRKCH (human) = PRKCH (human) (UniProt P24723)
PTK2B (human) = PTK2B (human) (UniProt Q14289)
PTK6 (human) = PTK6 (human) (UniProt Q13882)
ROS1 (human) = ROS1 (human) (UniProt P08922)
RPS6KA2 KD1 KD2 (human) = RPS6KA2 KD1 KD2 (human) (UniProt Q15349)
STK17A (human) = STK17A (human) (UniProt Q9UEE5)
STK25 (human) = STK25 (human) (UniProt O00506)
STK39 (human) = STK39 (human) (UniProt Q9UEW8)
TEC (human) = TEC (human) (UniProt P42680)
TGFBR1 (human) = TGFBR1 (human) (UniProt P36897)
TSSK1B (human) = TSSK1B (human) (UniProt Q9BXA7)
WEE1 (human) = WEE1 (human) (UniProt P30291)
AURKC (human) = AURKC (human) (UniProt Q9UQB9)
CDK6 CCND3 (human) = CDK6 CCND3 (human) (UniProt P30281+Q00534)
FLT1 (human) = FLT1 (human) (UniProt P17948)
KDR (human) = KDR (human) (UniProt P35968)
MAP2K2 (human) = MAP2K2 (human) (UniProt P36507)
Chain of MAP2K2 (human) (P36507 whole entry, looked up): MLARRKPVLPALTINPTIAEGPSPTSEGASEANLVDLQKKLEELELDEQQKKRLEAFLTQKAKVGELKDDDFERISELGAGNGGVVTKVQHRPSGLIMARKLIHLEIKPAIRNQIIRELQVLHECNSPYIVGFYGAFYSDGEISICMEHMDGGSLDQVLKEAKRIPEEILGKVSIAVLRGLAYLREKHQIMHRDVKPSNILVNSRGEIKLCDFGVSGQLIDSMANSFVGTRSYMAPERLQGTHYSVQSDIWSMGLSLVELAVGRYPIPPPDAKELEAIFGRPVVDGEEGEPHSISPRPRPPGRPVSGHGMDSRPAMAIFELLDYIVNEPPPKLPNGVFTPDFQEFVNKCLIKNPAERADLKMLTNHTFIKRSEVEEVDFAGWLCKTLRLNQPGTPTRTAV

Chain of KDR (human) (P35968 whole entry, looked up): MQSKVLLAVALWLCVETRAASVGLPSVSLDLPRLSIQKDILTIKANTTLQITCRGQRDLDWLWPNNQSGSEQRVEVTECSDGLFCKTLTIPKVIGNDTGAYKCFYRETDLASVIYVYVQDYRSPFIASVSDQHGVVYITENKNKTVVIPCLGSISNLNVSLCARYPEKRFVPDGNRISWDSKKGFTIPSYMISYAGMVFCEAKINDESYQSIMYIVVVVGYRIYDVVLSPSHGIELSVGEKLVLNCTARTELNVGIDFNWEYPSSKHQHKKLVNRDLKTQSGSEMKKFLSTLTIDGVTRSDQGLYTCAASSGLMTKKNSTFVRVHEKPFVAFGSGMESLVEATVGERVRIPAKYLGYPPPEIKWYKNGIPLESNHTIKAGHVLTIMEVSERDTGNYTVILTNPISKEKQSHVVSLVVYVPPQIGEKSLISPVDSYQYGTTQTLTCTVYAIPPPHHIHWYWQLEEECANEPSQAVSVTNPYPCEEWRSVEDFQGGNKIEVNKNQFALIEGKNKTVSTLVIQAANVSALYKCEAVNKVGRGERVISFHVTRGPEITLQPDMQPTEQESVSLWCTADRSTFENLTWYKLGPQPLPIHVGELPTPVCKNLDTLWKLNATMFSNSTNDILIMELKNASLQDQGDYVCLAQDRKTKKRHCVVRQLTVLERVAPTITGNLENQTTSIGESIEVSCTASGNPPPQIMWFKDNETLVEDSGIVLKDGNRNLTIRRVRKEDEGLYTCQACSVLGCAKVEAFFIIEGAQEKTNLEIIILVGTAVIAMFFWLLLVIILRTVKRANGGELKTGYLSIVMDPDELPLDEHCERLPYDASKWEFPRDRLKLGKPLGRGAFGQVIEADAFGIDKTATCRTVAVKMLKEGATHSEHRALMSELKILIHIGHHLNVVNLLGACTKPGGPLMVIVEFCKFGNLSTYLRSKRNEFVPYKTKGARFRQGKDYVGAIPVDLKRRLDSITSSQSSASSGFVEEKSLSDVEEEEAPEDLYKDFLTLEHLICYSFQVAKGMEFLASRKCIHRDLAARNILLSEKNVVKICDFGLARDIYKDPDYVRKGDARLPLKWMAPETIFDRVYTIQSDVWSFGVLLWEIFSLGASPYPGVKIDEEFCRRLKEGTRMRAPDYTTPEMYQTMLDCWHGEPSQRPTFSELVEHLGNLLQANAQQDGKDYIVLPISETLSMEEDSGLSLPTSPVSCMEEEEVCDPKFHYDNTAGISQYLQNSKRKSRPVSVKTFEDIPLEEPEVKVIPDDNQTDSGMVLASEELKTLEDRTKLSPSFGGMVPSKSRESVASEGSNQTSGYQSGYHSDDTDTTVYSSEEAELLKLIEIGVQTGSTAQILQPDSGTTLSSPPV
Chain of CDK9 CCNK (human) (O75909 whole entry, looked up): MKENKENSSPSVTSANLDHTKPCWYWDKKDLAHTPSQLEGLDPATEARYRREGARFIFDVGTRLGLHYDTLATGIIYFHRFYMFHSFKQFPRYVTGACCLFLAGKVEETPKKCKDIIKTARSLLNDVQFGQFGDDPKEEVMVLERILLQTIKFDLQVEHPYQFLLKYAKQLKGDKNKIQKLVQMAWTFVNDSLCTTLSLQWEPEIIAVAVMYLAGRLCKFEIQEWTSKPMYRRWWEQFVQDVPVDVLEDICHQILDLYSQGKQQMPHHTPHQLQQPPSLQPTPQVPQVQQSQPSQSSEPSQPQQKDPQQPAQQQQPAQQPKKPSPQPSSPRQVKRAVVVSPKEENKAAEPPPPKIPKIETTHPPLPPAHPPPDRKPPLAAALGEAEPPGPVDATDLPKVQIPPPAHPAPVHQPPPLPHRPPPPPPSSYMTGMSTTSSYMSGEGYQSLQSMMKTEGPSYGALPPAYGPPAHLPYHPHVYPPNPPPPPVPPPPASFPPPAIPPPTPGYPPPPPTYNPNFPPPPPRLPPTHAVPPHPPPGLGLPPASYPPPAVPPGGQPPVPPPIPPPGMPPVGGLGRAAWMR
Chain of CDK9 CCNK (human) (P50750 whole entry, looked up): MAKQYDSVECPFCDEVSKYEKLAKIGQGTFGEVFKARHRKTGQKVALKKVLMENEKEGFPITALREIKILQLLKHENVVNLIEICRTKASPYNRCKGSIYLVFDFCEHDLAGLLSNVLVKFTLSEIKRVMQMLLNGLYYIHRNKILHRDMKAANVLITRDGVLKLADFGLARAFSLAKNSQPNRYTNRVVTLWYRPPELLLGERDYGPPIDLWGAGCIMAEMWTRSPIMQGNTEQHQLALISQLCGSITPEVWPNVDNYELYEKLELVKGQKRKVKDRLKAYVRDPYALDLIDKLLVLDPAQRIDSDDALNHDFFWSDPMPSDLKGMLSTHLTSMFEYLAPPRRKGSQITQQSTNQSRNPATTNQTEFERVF
Chain of NEK1 (human) (Q96PY6 whole entry, looked up): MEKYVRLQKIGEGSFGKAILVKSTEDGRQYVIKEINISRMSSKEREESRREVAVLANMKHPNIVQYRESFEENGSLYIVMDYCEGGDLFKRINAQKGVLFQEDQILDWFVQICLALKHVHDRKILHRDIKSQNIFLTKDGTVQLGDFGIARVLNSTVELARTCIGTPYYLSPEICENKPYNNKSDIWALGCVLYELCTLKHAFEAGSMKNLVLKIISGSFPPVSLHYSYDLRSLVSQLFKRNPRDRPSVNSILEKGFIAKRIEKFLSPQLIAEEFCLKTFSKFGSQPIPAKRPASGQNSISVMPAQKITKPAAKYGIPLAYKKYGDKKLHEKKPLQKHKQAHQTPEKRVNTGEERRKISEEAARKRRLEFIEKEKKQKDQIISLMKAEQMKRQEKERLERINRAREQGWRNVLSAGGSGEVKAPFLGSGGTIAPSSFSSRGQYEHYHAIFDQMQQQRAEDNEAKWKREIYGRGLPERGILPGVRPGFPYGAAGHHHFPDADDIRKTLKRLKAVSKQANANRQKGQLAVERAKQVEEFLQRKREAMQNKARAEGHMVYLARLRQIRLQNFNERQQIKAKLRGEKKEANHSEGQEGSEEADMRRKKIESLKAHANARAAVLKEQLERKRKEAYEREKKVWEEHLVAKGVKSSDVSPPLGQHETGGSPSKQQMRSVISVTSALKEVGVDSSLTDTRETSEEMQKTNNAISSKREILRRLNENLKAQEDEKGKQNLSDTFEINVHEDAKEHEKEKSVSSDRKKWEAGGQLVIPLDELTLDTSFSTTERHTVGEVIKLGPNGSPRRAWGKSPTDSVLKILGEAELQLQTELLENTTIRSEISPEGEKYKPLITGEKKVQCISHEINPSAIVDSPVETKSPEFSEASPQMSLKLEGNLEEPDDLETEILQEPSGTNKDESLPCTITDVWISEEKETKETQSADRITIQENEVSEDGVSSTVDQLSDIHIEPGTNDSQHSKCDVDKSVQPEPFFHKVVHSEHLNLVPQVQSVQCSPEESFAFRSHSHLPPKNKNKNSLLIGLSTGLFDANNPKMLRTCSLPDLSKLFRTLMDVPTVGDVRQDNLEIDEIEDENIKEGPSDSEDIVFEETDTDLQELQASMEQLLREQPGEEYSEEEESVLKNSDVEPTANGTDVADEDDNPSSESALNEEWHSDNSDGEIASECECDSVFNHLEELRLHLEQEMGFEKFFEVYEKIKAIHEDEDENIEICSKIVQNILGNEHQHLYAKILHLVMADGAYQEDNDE
Chain of DYRK1B (human) (Q9Y463 whole entry, looked up): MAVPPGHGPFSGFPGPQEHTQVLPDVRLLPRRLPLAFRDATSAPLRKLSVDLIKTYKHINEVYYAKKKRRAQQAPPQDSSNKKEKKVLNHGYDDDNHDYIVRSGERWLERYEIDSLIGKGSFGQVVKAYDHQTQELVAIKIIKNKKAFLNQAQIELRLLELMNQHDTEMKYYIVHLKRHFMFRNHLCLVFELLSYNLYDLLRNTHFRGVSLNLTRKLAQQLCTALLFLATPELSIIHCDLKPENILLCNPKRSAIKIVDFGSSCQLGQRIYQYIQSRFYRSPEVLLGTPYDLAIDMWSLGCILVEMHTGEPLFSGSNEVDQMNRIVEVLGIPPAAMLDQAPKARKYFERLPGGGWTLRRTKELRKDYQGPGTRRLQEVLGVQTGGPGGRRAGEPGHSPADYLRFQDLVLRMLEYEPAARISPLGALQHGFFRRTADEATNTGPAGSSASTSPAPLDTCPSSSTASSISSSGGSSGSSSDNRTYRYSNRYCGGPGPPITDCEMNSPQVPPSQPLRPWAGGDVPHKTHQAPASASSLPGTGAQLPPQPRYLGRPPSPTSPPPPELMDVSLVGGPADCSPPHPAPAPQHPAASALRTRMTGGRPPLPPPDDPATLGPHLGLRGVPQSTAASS
Chain of STK17A (human) (Q9UEE5 whole entry, looked up): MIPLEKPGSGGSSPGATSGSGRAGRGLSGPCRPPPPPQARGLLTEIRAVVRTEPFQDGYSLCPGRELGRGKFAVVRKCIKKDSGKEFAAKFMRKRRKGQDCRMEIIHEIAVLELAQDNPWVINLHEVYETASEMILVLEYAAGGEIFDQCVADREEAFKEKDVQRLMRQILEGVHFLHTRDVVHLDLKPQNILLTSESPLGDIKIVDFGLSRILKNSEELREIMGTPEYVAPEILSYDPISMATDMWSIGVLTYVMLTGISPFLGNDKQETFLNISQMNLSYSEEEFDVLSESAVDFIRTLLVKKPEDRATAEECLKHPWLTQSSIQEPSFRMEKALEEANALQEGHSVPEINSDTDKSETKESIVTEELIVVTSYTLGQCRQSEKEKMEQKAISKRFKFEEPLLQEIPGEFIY

CN[C@@H]1C[C@H]2O[C@@](C)([C@@H]1OC)n1c3ccccc3c3c4c(c5c6ccccc6n2c5c31)C(=O)NC4
residual activity (CDK9 CCNK (human)): 9.24% | residual activity (CSK (human)): 8.01% | residual activity [1]: 2.07% | residual activity (NEK1 (human)): 3.99% | residual activity (RPS6KA5 KD2 (human)): 1.24%

COc1cc2c(Nc3ccc(Br)cc3F)ncnc2cc1OCC1CCN(C)CC1
residual activity (ACVRL1 (human)): 104% | residual activity (CAMKK2 (human)): 102% | residual activity (CHUK (human)): 96.6% | residual activity (CLK3 (human)): 100% | residual activity (CSK (human)): 54.4% | residual activity (CSNK1G3 (human)): 98.1% | residual activity (CSNK2A2 (human)): 96.5% | residual activity (DCLK2 (human)): 104% | residual activity (DYRK1A (human)): 106% | residual activity (DYRK1B (human)): 93% | residual activity (DYRK4 (human)): 102% | residual activity (EPHA1 (human)): 31.7% | residual activity (GSK3A (human)): 103% | residual activity (HIPK4 (human)): 100% | residual activity [1]: 99.1% | residual activity (KIT (human)): 71.4% | residual activity (MAPK1 (human)): 99.1% | residual activity (MAPKAPK2 (human)): 99.5% | residual activity (MELK (human)): 94.4% | residual activity (NEK1 (human)): 123% | residual activity (NEK2 (human)): 103% | residual activity (PKN2 (human)): 99.7% | residual activity (PRKCB1 (human)): 89.1% | residual activity (PRKCH (human)): 117% | residual activity (PTK2B (human)): 99.5% | residual activity (PTK6 (human)): 7.28% | residual activity (ROS1 (human)): 76.5% | residual activity (RPS6KA2 KD1 KD2 (human)): 85.9% | residual activity (RPS6KA5 KD2 (human)): 101% | residual activity (STK17A (human)): 92.4% | residual activity (STK25 (human)): 99% | residual activity (STK39 (human)): 97.4% | residual activity (TEC (human)): 91.6% | residual activity (TGFBR1 (human)): 102% | residual activity (TSSK1B (human)): 96.6% | residual activity (WEE1 (human)): 95.1%

O=S(=O)(NCCNC/C=C/c1ccc(Br)cc1)c1cccc2cnccc12
residual activity (ACVRL1 (human)): 119% | residual activity (AURKC (human)): 89% | residual activity (CAMKK2 (human)): 95.6% | residual activity (CDK6 CCND3 (human)): 96.6% | residual activity (CDK9 CCNK (human)): 85.5% | residual activity (CHUK (human)): 104% | residual activity (CLK3 (human)): 87.6% | residual activity (CSK (human)): 95.6% | residual activity (CSNK1G3 (human)): 93.3% | residual activity (CSNK2A2 (human)): 86.6% | residual activity (DCLK2 (human)): 90.1% | residual activity (DYRK1A (human)): 98.5% | residual activity (DYRK1B (human)): 95.3% | residual activity (DYRK4 (human)): 96.4% | residual activity (EPHA1 (human)): 83.7% | residual activity (FLT1 (human)): 90.8% | residual activity (GSK3A (human)): 94.3% | residual activity (HIPK4 (human)): 97.7% | residual activity [1]: 87.3% | residual activity (KDR (human)): 79.1% | residual activity (KIT (human)): 101% | residual activity (MAP2K2 (human)): 103% | residual activity (MAPK1 (human)): 108% | residual activity (MELK (human)): 75.1% | residual activity (NEK1 (human)): 94.4% | residual activity (NEK2 (human)): 97.1% | residual activity (PKN2 (human)): 78.9% | residual activity (PRKCB1 (human)): 88.3% | residual activity (PRKCH (human)): 53.2% | residual activity (PTK2B (human)): 85% | residual activity (PTK6 (human)): 94.2% | residual activity (ROS1 (human)): 99.6% | residual activity (RPS6KA2 KD1 KD2 (human)): 79.2% | residual activity (RPS6KA5 KD2 (human)): 39.4% | residual activity (STK17A (human)): 100% | residual activity (STK25 (human)): 104% | residual activity (STK39 (human)): 103% | residual activity (TEC (human)): 102% | residual activity (TGFBR1 (human)): 97% | residual activity (TSSK1B (human)): 93.5% | residual activity (WEE1 (human)): 84.6%

c1ccc(-c2cnc(Nc3ccc(OCCN4CCCC4)cc3)s2)cc1
residual activity (ACVRL1 (human)): 108% | residual activity (AURKC (human)): 94.9% | residual activity (CAMKK2 (human)): 89.4% | residual activity (CDK6 CCND3 (human)): 20.1% | residual activity (CDK9 CCNK (human)): 39.8% | residual activity (CHUK (human)): 93.3% | residual activity (CLK3 (human)): 94.3% | residual activity (CSK (human)): 89.9% | residual activity (CSNK1G3 (human)): 91.8% | residual activity (CSNK2A2 (human)): 92.1% | residual activity (DCLK2 (human)): 87.6% | residual activity (DYRK1A (human)): 94.2% | residual activity (DYRK1B (human)): 95.4% | residual activity (DYRK4 (human)): 99.4% | residual activity (EPHA1 (human)): 85.3% | residual activity (FLT1 (human)): 74.5% | residual activity (GSK3A (human)): 99.2% | residual activity (HIPK4 (human)): 98.5% | residual activity [1]: 101% | residual activity (KDR (human)): 76.1% | residual activity (KIT (human)): 20.3% | residual activity (MAP2K2 (human)): 90.2% | residual activity (MAPK1 (human)): 83.4% | residual activity (MELK (human)): 83.5% | residual activity (NEK1 (human)): 94.2% | residual activity (NEK2 (human)): 90.6% | residual activity (PKN2 (human)): 97% | residual activity (PRKCB1 (human)): 108% | residual activity (PRKCH (human)): 88.2% | residual activity (PTK2B (human)): 77.2% | residual activity (PTK6 (human)): 80.8% | residual activity (ROS1 (human)): 96.9% | residual activity (RPS6KA2 KD1 KD2 (human)): 85% | residual activity (RPS6KA5 KD2 (human)): 104% | residual activity (STK17A (human)): 66.2% | residual activity (STK25 (human)): 95.5% | residual activity (STK39 (human)): 75.4% | residual activity (TEC (human)): 106% | residual activity (TGFBR1 (human)): 97% | residual activity (TSSK1B (human)): 96.5% | residual activity (WEE1 (human)): 92%

O=c1cc(N2CCOCC2)oc2c(-c3ccccc3)cccc12
residual activity (ACVRL1 (human)): 91.9% | residual activity (AURKC (human)): 97% | residual activity (CAMKK2 (human)): 83.3% | residual activity (CDK6 CCND3 (human)): 101% | residual activity (CDK9 CCNK (human)): 95.9% | residual activity (CHUK (human)): 104% | residual activity (CLK3 (human)): 107% | residual activity (CSK (human)): 88.1% | residual activity (CSNK1G3 (human)): 92.4% | residual activity (CSNK2A2 (human)): 93.9% | residual activity (DCLK2 (human)): 97.6% | residual activity (DYRK1A (human)): 97.3% | residual activity (DYRK1B (human)): 96.8% | residual activity (DYRK4 (human)): 91.9% | residual activity (EPHA1 (human)): 101% | residual activity (GSK3A (human)): 93.5% | residual activity (HIPK4 (human)): 102% | residual activity [1]: 108% | residual activity (KDR (human)): 87.2% | residual activity (KIT (human)): 92.9% | residual activity (MAP2K2 (human)): 96.8% | residual activity (MAPK1 (human)): 70.3% | residual activity (MAPKAPK2 (human)): 103% | residual activity (MELK (human)): 91.3% | residual activity (NEK1 (human)): 86.7% | residual activity (NEK2 (human)): 89.8% | residual activity (PKN2 (human)): 98.6% | residual activity (PRKCB1 (human)): 96% | residual activity (PRKCH (human)): 99% | residual activity (PTK2B (human)): 107% | residual activity (PTK6 (human)): 96% | residual activity (ROS1 (human)): 98.4% | residual activity (RPS6KA2 KD1 KD2 (human)): 92.4% | residual activity (RPS6KA5 KD2 (human)): 99.5% | residual activity (STK17A (human)): 93.5% | residual activity (STK25 (human)): 116% | residual activity (STK39 (human)): 78.4% | residual activity (TEC (human)): 107% | residual activity (TGFBR1 (human)): 97.5% | residual activity (TSSK1B (human)): 101% | residual activity (WEE1 (human)): 76.4%
